The results in this text go back to patent US20220160812A1, “A PHARMACEUTICALLY ACTIVE SUBSTANCE” (Cytopharma GmbH, priority 2019, published 2022).

Entries after “also recorded” stand apart in the source; their conditions may differ. Non-standard residues stand in square brackets, D forms with d. Residues, ends and D or L forms follow the SMILES beside them.

Data set [1] has as its system A375 melanoma cells. The data set can be described thus: cell vitality FACS analysis (region R-1, FSC/SSC), A375 melanoma cells. In kind it is cell-based, human. The note with it: A375, Protocol A, about 24 hours, FIG. 7. On the procedure: (§1) To transfer adherent cells (A375 and BxPC-3 cells) after culture, cells are washed twice with PBS. To detach the cells, the enzyme biotase is used according to the manufacturer's instructions. For this purpose, after washing with PBS, the cells are mixed with biotase (5 ml of biotase solution per 75 cm^2 surface of the cell culture bottles) and incubated for 5 min at 37 degrees Celsius, and the biotase is separated by centrifugation. Cells cultivated in suspension (MEC-1 and lymphocytes) were transferred by dilution. The cells are suspended in culture medium and counted, each time 1.5×10^5 cells/cm^2 are seeded in 48-well plates and cultured for between 1.5 and 24 hours at 37 degrees Celsius, 5% CO2. Peptides are pre-diluted from stock solution with culture medium and 200 μl of peptide solution added so that final concentrations of 30 to 500 μM peptide are present in at most 1% (v/v) DMSO. As control solutions, culture medium without peptide (DMSO-containing) in culture medium or etoposide solution is added. After incubating the cells for several hours, the cell supernatant is transferred to a FACS tube for each batch and, after washing the cells with PBS, the wash solution is added. Then the cells are incubated with 200 μl of biotase solution for 10 min, 37° C., the cells with the biotase are also transferred to the FACS tube and the cells are collected by centrifugation for 5 min. The cell pellet is suspended in 500 μl of serum-free culture medium, then 1.5 ml of cold 80% ethanol (ethanol/PBS-80/20, v/v, stored at −20° C.) is added, the FACS tubes sealed and stored at −20 degrees Celsius for 15 to 18 h. Thereafter, the cells are centrifuged for 5 minutes at 120 g, suspended after removal of the supernatant in 2 ml PBS and incubated at 37 degrees Celsius for 30 minutes. After re-centrifugation, the cells are suspended in 0.5 ml DAPI solution and incubated for 15 min at 20 degrees Celsius in the dark. Thereafter, the cells are stored dark for a maximum of four hours in an ice bath, followed by the FACS analysis.
For suspension cells (MEC-1 and lymphocytes/PBMC) and for adherent cells analyzed according to Protocol A, FACS analysis to determine subG1 cell cycle and vital cell fractions was done on a Becton Dickinson LSR Fortessa flow cytometer. The analysis by FACS including subG1 and vital cell analysis according to protocol B was performed with a Cytomics FC 500 MPL flow cytometer from Beckman Coulter.
Changes of the cell form during cell death by apoptosis are documented in the literature (Lizard et al. 1995; Taga et al. 2000; Vermes et al., 2000). The protocols for cell cultivation, treatment and preparation of the cells before flow cytometry is detailed in separate examples. Cell suspensions of cell lines A375, BxPC-3, MEC-1 or of primary lymphocytes (see separate example of lymphocyte preparation) are analyzed by flow cytometry. The data are further analyzed by using the program “Flowing Software 2”. The data of light scattering are drawn in a two-dimensional FSC/SSC plot. Since the position in the FSC/SSC plot of apoptotic cells changes relative to non-apoptotic cells (Vermes et al., 2000), a region (R-1) is drawn representing mainly non-apoptotic cells and excluding cells with both low FSC and low SSC values and excluding cells with high values of FSC and/or SSC (FIG. 1). The regions are individually selected for each cell type (A375, BxPC-3, MEC-1 and primary lymphocytes). The percentage of untreated non-apoptotic cells in the region R-1 relative to total cells is set to 100%, representing 100% vital cells. The fraction (%) of cells in R-1 relative to the total number of cells in case of cell treatment by certain peptides or by cytotoxic drugs results in cell vitality, below 100%, thereby indicating a loss of cell vitality by the treatment. […]
On the technique in general: Flow cytometry measures light scatter and fluorescence of single cells or particles in a stream.

The test system of data set [2] is human peripheral blood mononuclear cells (Lymphocyte, PBMC). The data set can be described thus: cell vitality FACS analysis (region R-1), healthy lymphocytes (PBMC). In kind it is cell-based. To be noted: Protocol A, 50, 100, 200 μM, about 24 hours per Examples (FIG. 11 legend: about 2 hours). As to the method: Human lymphocytes are obtained as peripheral blood mononuclear cells (“PBMC”) from whole blood. For this purpose, 15 ml of heparinized whole blood (heparin tube, Sarstedt) were layered on 15 ml Biocoll in LeucoSep tubes and obtained by centrifugation (10 min at 120 g) as the top layer (“lymphocytes”) and so separated from other cells. For induction with peptides, 1×10^6 lymphocytes are seeded into each well of the 48-well plates.
After addition of the peptides diluted in culture medium to the cells (MEC-1 or lymphocytes) in the respective cavity, the cells are cultured for 2 to 4 hours at 37 degrees Celsius and 5% CO2. The cell suspension is centrifuged in centrifuge tubes at 120 g, the cells are suspended in 500 μl serum-free culture medium, then 1.5 ml of cold 80% ethanol (ethanol/PBS-80/20, v/v; stored at −20 degrees Celsius) is added, the FACS tubes sealed and stored at −20 degrees Celsius for a maximum of 18 h. The cells are centrifuged for 5 min at 120 g and suspended in 2 ml PBS, then incubated for 30 min at 37 degrees Celsius. After renewed centrifugation, the cells are suspended in 0.5 ml DAPI solution and incubated for 15 min at 20 degrees Celsius in the dark. Thereafter, the cells are stored dark for a maximum of four hours in an ice bath, then the FACS analysis.
as §1
Changes of the cell form during cell death by apoptosis are documented in the literature (Lizard et al. 1995; Taga et al. 2000; Vermes et al., 2000). The protocols for cell cultivation, treatment and preparation of the cells before flow cytometry is detailed in separate examples. Cell suspensions of cell lines A375, BxPC-3, MEC-1 or of primary lymphocytes (see separate example of lymphocyte preparation) are analyzed by flow cytometry. The data are further analyzed by using the program “Flowing Software 2”. The data of light scattering are drawn in a two-dimensional FSC/SSC plot. […]

Data set [3] relates to A375 melanoma cells. The data set can be described thus: subG1 cell cycle FACS apoptosis assay, A375 melanoma cells. It is filed as cell-based, human. To be noted: about 24 hours, FIG. 3. As to the method:
as §1
The adherent cells (A375 and BxPC-3 cells and MDA-MB-231, respectively) are seeded 24 hours before induction in 6-well plates in culture medium. For this, the cells are washed with PBS, then incubated with trypsin/EDTA solution at 37 degrees Celsius and suspended in culture medium. The 6-well plates are loaded with 1×10^5 cells/cm^2 in culture medium and the cells incubated for 24 hours until induction with the peptides in the incubator. For induction, the peptides are diluted in fresh culture medium. As control solutions, culture medium without peptide (DMSO-containing) in culture medium or etoposide solution is added. The cells are washed with PBS. Thereafter the peptide solution in culture medium is added to the cells. After incubation in the incubator (37° C., 5% CO2) between 1.5 and 24 hours, the cell supernatant is transferred to 15 ml centrifuge tubes, the cells are washed with 0.75 ml PBS and then with 0.5 ml versene solution. Both washings are combined with the cell supernatant. The cells are then added with 0.5 ml of trypsin/EDTA solution and incubated at about 37° C. for at most 10 minutes until the cells detached. The cell suspension is combined with cell supernatant and washings and centrifuged at about 130 g for about 10 minutes. After removing the supernatant, the cells are suspended in 400 μl of cell culture medium (without serum) and mixed with 1.2 ml of 80% ethanol/20% PBS (v/v) and incubated for 1 to 7 days at −20° C. For analysis, the cells are centrifuged at 130 g for 10 min, suspended in 2 ml PBS, and centrifuged again for 5 min. The cells are suspended in 700 μl PI buffer and incubated for 10 min at 37° C. in the dark. Subsequently, the cells are stored dark for a maximum of four hours in an ice bath, then the FACS analysis is performed.
The proportion of cells which have died was determined by two methods, both rely on the analysis of cells by flow cytometry, often called FACS analysis. […]

[4] abbreviates: any concentration (100, 200, 500 μM).

In the case of d-k-w-m-v-v-y-f-r-d [SEQID No 39], the “decrease of cell vitality, comparison in words” value in data set [1] (100 μM) is “higher apoptosis rate at a concentration of 100 μM as peptide SEQID NO 27”; in data set [1] (setting [4]), “significantly greater decrease than the peptide of the prior art (Peptide SEQ C1)”.
`CSCC[C@@H](NC(=O)[C@@H](Cc1c[nH]c2ccccc12)NC(=O)[C@@H](CCCCN)NC(=O)[C@@H](CCCCN)NC(=O)[C@H](NC(=O)[C@@H](CO)NC(=O)[C@H](N)CCCNC(=N)N)[C@H](C)O)C(=O)N[C@@H](C(=O)N[C@@H](C(=O)N[C@H](Cc1ccc(O)cc1)C(=O)N[C@H](Cc1ccccc1)C(=O)N[C@H](CCCNC(=N)N)C(=O)N[C@H](CCCCN)C(=O)O)C(C)C)C(C)C` [SEQID No 33, r-s-t-k-k-w-m-v-v-y-f-r-k] (H-[dR][dS][dT][dK][dK][dW][dM][dV][dV][dY][dF][dR][dK]-OH; N-terminus and C-terminus assumed): the “tolerance by healthy Lymphocyte (PBMC) cells (cell vitality)” value in data set [2] is listed as “not remarkably damaged; also recorded: well tolerated”.
For s-q-t-v-q-k-w-m-v-v-y-f-r [SEQID No 38], in data set [3] (A375, Protocol A, 100, 200, 500 μM), the “apoptosis efficiency (subG1), comparison in words” value was “clear improvement over peptide SEQID NO 27 at a concentration below 500 μM and over Peptide SEQID NO 39 at a concentration above 100 μM”. Moreover, in data set [3] (A375, Protocol A, any concentration (100, 200, 500 μM)), the “apoptosis efficiency (subG1) in view of Peptide SEQ C1” value is reported as “at least tenfold”. Besides, the “efficiency (decrease of cell vitality) in view of Peptide SEQ C1” value is “at least threefold” in data set [1] (200 μM) and “at least tenfold” in data set [1] (500 μM). Further, the “decrease of cell vitality, comparison in words” value in data set [1] (setting [4]) was “clear improvement over peptides SEQID NO 27 and SEQID NO 39 at any concentration”; in data set [1] (any concentration (100, 200, 500 μM), listed as SEQID NO 38), “significantly greater decrease than the peptide of the prior art (Peptide SEQ C1)”.
